Source: US9238797B2, “Method for production of pluripotent stem cell” (TAKARA BIO INC., priority 2008, dated 2016)

Key:
human skin fibroblast = experiment: iPS cell colony number, Retronectin method versus polybrene method (Example 19); assay type: cell-based; conditions: for iPS cell colony number: 28th day of culture
Experimental: As an index showing an existence rate of a cell in which each retrovirus vector together with a gene encoding a nuclear reprogramming factor (iPS cell inducing factor) was inserted, gene transfer of an AcGFP1 gene was carried out, and a pluripotent stem cell (iPS cell) induction efficiency and an AcGFP1 positive cell rate, in a gene transfer method with Retronectin (Retronectin method) and a gene transfer method with polybrene (polybrene method) were compared. In addition, regarding partial condition, quantitation of a copy number of a retrovirus vector inserted into a genome was carried out, and comparison of a copy number and a pluripotent stem cell (iPS cell) induction efficiency was carried out.
The virus solutions prepared in Preparation Example 2 and Preparation Example 3 were mixed at an equal amount in a combination of Table 24, the solution in which the virus solution was diluted 10-fold and 100-fold with 10F-DMEM was prepared regarding the condition A, and the solution in which the virus solution was diluted 10-fold was prepared regarding the condition B, and these were used in gene transfer. Gene transfer was carried out according to the same manner as that of Example 7-(2), provided that 1 mL of PSB was used for washing a plate with PBS in the Retronectin method, the cell number used in infection by the Retronectin method and the polybrene method was 4×10^4 cells/well, and a retrovirus vector solution was 1 mL/well.
According to the same manner as that of Example 10-(4), seeding of the gene-introduced cell on a feeder cell was carried out, provided that an AcGFP1 positive cell rate was measured with a flow cytometer using remaining cells which were not used in seeding on the feeder cell.
According to the same manner as that of Example 10-(5), culturing on the feeder cell was carried out, provided that cells were recovered from a part of wells under the condition A on the 11th day of culture, genome extraction was carried out, and the inserted number of the retrovirus vector was quantitated.

[1] = system: human skin fibroblast derived from four different donors; experiment: Gene transfer efficiency, double positive cells, fibroblast of four donors, gene transfer two times (Example 12); assay type: cell-based; conditions: sixth day of culture, N=2
Experimental: Gene transfer efficiencies using a plurality of retrovirus vectors with Retronectin or polybrene were further compared. Introduction of a fluorescent protein gene was carried out targeting human skin fibroblast derived from four different donors, using a method of performing gene transfer two times as in the pluripotent stem cell inducing experiment. In the present Example, the cell A indicates derived from a person, the cell B indicates derived from a person, the cell C indicates derived from a person, and the cell D indicates derived from a person (all manufactured by Lonza).
According to the same manner as that of Example 8-(1), immobilization of Retronectin on a culture plate was carried out.
According to the same manner as that of Example 8-(2), gene transfer was carried out (day 0 of culturing), provided that a group in which a virus solution was diluted 10-fold, 100-fold or 1000-fold with 10F-DMEM was set.
According to the same manner as that of Example 8-(3), a gene transfer efficiency was measured on the sixth day of culture. […] In addition, the number in the Table indicates an average value of N=2.

## Retronectin: fragment of fibronectin having a heparin-II binding region (registered trademark, CH-296, TAKARA BIO INC.)
Human skin fibroblast; Condition A, Retronectin method 100-fold dilution versus polybrene method 10-fold dilution
  iPS cell colony number higher in the Retronectin method: 9 fold
Human skin fibroblast; Condition A, retrovirus 10-fold dilution
  difference in the iPS cell colony number, Retronectin method versus polybrene method: ≥ 3 fold
Human skin fibroblast; Condition B, versus polybrene method
  iPS cell colony number higher in the Retronectin method: 2 fold
Human skin fibroblast; vector combination Condition A, virus 10-fold dilution
  iPS cell colony number: 10.0
Human skin fibroblast; vector combination Condition A, virus 100-fold dilution
  iPS cell colony number: 27.0
Human skin fibroblast; vector combination Condition B, virus 10-fold dilution
  iPS cell colony number: 11.5
[1]; Cell A, Virus 10-fold dilution
  Ratio of double positive cells: 55.9
[1]; Cell A, Virus 100-fold dilution
  Ratio of double positive cells: 61.6
[1]; Cell A, Virus 1000-fold dilution
  Ratio of double positive cells: 51.9
[1]; Cell A, Virus stock solution
  Ratio of double positive cells: 42.5
[1]; Cell B, Virus 10-fold dilution
  Ratio of double positive cells: 49.7
[1]; Cell B, Virus 100-fold dilution
  Ratio of double positive cells: 57.7
[1]; Cell B, Virus 1000-fold dilution
  Ratio of double positive cells: 48.7
[1]; Cell B, Virus stock solution
  Ratio of double positive cells: 35.9
[1]; Cell C, Virus 10-fold dilution
  Ratio of double positive cells: 54.6
[1]; Cell C, Virus 100-fold dilution
  Ratio of double positive cells: 60.2
[1]; Cell C, Virus 1000-fold dilution
  Ratio of double positive cells: 46.4
[1]; Cell C, Virus stock solution
  Ratio of double positive cells: 42.1
[1]; Cell D, Virus 10-fold dilution
  Ratio of double positive cells: 54.2
[1]; Cell D, Virus 100-fold dilution
  Ratio of double positive cells: 63.2
[1]; Cell D, Virus 1000-fold dilution
  Ratio of double positive cells: 51.0
[1]; Cell D, Virus stock solution
  Ratio of double positive cells: 38.4
